Assays:
[1] = tested on: HeLa cells expressing FUS GFP; experiment: HeLa FUS GFP live imaging: pre-stress then treatment, and pre-treatment with wash-out; format: cell-based
Description: To determine if lipoic acid can lead to dissolution of existing stress granules the inventors pre-stressed HeLa cells expressing FUS-GFP cells then treated them with lipoamide. […] This response is likely too rapid to represent a transcription/translation response.
To test if treatment of cells with lipoamide can give a persistent resistance to stress granule formation in the absence of continued lipoamide treatment 1 h pre-treatment of HeLa cells with 10 μM lipoamide followed by 1 h arsenate stress without lipoamide was tested.
Compound effects were assessed under a variety of conditions in HeLa or iPS cells expressing wild-type or P525L FUS GFP by live cell imaging. Different combinations of 1 h pre-treatment compound or pre-stress with arsenate followed by 1 h treatment with compound and/or stress with arsenate. […] GFP fluorescence was imaged by widefield epifluorescence using an inverted Olympus IX71 microscope with an Olympus 100× NA 1.4 Plan Apo oil immersion objective and a CoolSNAP HQ CCD camera (Photometrics), using a DeltaVision climate control unit (37° C., 5% CO2) (Applied Precision). The kinetics of pre-stress followed by treatment was analysed from images captured at 2 min intervals for 100 min, for single time points images were captured after 1 h unless otherwise indicated.

[2] = Attainable concentration / precipitation of lipoamide in aqueous media; format: physicochemical
HeLa cells = experiment: 15N lipoamide uptake by HeLa cells measured by NMR; format: in vitro ADME
Description: The concentration of lipoamide relative to protein required for an effect on condensate liquidity in vitro was higher than the EC50 on cells, on the order of 100 μM lipoamide with 1 μM FUS (FIGS. 1D-1E, FIGS. 5A-5E). In cells, FUS concentrations are high for a protein (low μM)^41 and the cellular EC50 was on the order of 10 μM (FIG. 2A, FIG. 3D). We also saw inverse effects of lipoamide on FUS-containing condensates in vitro (more, larger condensates) and in cells (fewer stress granules). To reconcile this difference and to understand the relevance of the effects in vitro in cells, we wanted to know the actual concentrations of compounds in cells. In principle, isotopic labelling allows direct monitoring of isotopically-labelled compounds even in complex environment through appropriate spectroscopy. To use this approach, ^15N-labelled lipoamide (FIG. 7A) was synthesised.
Uptake of ^15N lipoamide by cells from the medium was quantified by NMR following incubation of lipoamide at 37° C. for 1 h either in the absence or presence of HeLa cells (FIG. 7B). Cellular uptake was determined by calculating the difference between medium incubated with cells or without cells for combinations of either R-(+) or (±)-lipoamide and either unstressed or stressed cells (FIG. 7C). For one sample, stressed cells with R-(+)-lipoamide, we confirmed that strong signal from the cell fraction was consistent with uptake of a large proportion of lipoamide (FIG. 7C). Both R-(+) and ±-lipoamide measurements indicated uptake of 35±11% (n=3 and 2, respectively) of the lipoamide present in the medium. No significant difference was observed either for uptake of R-(+) compared to (±)-lipoamide or stressed compared to unstressed cells (FIG. 7D).
For analysis of ^15N lipoamide uptake by cells HeLa cells expressing FUS GFP were grown in 6 well plates to 10^6 cells/well in DMEM supplemented with 10% FCS. To simultaneously stress and treat cells, the medium was replaced with 0.6 ml medium supplemented with potassium arsenate and 100 μM ^15N racemic or R-(+)-lipoamide for 1 h at 37° C. High concentrations of compound were used to maximise the signal. […] Wells were prepared for all combinations of no compound (1% DMSO control), ^15N […] or ^15N R-(+)-lipoamide, with or without potassium arsenate and with or without cells. ^1H detected ^15N edited ^1H sensitivity enhanced HSQ was used to quantify ^15N lipoamide concentration (see Supplementary Information). Solvent, pH and temperature sensitivity of the primary amide proton chemical shifts were determined using dummy samples assembled from the appropriate solvent and added compounds.
^1H detected ^15N edited ^1H sensitivity enhanced HSQC NMR (referred to here as (^15N) ^1H) spectra were acquired on a narrow bore Varian solution state spectrometer operating with a fixed field strength of 14.1 T, equipped with a room-temperature probe.
The free induction decay was recorded for an acquisition time of 0.0624 and a sweep with of 8 kHz recorded over 1000 and a recovery delays of 1 s. […] The J coupling between the amide protons and the ^15N in H2O samples was determined to be 96 Hz, and so the transfer times of 1/4 J in the INEPT portions of the pulse sequence were set to 2.6 ms. […]

[3] = tested on: HeLa cells expressing FUS GFP; experiment: HeLa cell compound dose responses (FUS GFP, arsenate stress); format: cell-based
[4] = 1 h pre-treatment, 1 h arsenate stress

## NC(=O)CCCCC1CCSS1 (racemic) [lipoamide, 5-(1,2-dithiolan-3-yl)pentanamide]
[1]; 1 h arsenate pre-stress, then 10 μM lipoamide with 1 mM arsenate, within 20 minutes
  cytoplasmic FUS droplets dissolved: 80-90%
[1]; 1 h pre-treatment 10 μM, then 1 h arsenate stress without compound
  stress granule formation after compound wash-out: did not prevent stress granule formation
[2]
  behaviour in worm culture medium: precipitation in the worm culture medium
[2]; H2O with 1% v/v DMSO
  concentration able to be reached in vitro: 300 µM
HeLa cells; 100 μM, 1 h, 37° C., stressed or unstressed HeLa cells
  uptake of the lipoamide present in the medium: 35%
HeLa cells; NMR signal from the cell sample
  metabolism or chemical modification in cells: no evidence for metabolism or any other chemical modification
[3]; 1 h 1 mM arsenate stress
  EC50 reducing stress granule number, compared among compounds: comparable EC50
[3]; [4]
  nuclear/cytoplasm FUS partition, dose response: increased nuclear/cytoplasm FUS partition
  stress granule number, dose response: reducing the number of stress granules
[3]; Homo sapiens, HeLa FUS GFP, 1 h 1 mM arsenate stress, read-out: cellular EC50
  EC50: ~10 µM

## O=C(O)CCCCC1CCSS1 (racemic) [lipoic acid, 5-(1,2-dithiolan-3-yl)pentanoic acid]
[3]; 1 h 1 mM arsenate stress
  EC50 reducing stress granule number, compared among compounds: comparable EC50

Reference: patent US12422427B2, “Compounds for treatment of diseases and methods of screening therefor” (Max-Planck-Gesellschaft zur Förderung der Wissenschaften …, priority 2018, dated 2025)
